Key:
[1] = Center's experience with DHEA treatment of infertile patients: testosterone levels in response to DHEA or transdermal testosterone; assay type: in vivo, women
From the text: One purpose of DHEA supplementation is raising testosterone levels. In other words, the biologically active hormone is testosterone. Its application, however, has more side effects. But some patients have a hard time converting DHEA to testosterone [Shohat-Tal A, Sen A, Barad D H, Kushnir V, Gleicher N. Genetics of androgen metabolism in women with infertility and hypoandrogenism. Nat Rev Endocrinol 2015; 11(7):429-441] and, therefore, must be treated directly with testosterone. The testosterone dosage is 0.05 mg transdermal by pump between once to 2-times per day for the same time period that DHEA supplementation dosages are taken. The peripheral testosterone levels and SHBG in blood are monitored and adjusted accordingly. Sex hormone binding globulin (SHBG) is a protein that is produced by the liver and binds tightly to the hormones testosterone, dihydrotestosterone (DHT), and estradiol (an estrogen). If patients require testosterone directly, the DHEA supplementation is still continued.

[2] = Endocrine evaluation: serum hormone levels before and after DHEA supplementation; assay type: in vivo, women
From the text: (§1) All patients in the study were asked to complete the self-reported Female Sexual Function Index (FSFI) questionnaire^31 prior to initiation to DHEA supplements and again 4-8 weeks later. The patients' fertility treatments were not affected by their participation in this study, in laboratory investigations, and/or timing of procedures. Patients underwent the same standard endocrine evaluations all patients undergo at the Center for Human Reproduction, including measurement of serum androgen levels: DHEA, DHEAS, total (TT) and free testosterone (FT) before, and 4-8 weeks after, initiating 25 mg of oral DHEA supplementation TID. All here presented hormone levels were obtained by commercial assays (LabCorp, Burlington, N.C.). All androgen levels were measured using high-pressure liquid chromatography/tandem mass spectrometry.
The measurement procedures for measuring serum androgen and FSH are conventional. The formulation for an oral dosage of DHEA is conventional.

[3] = system: premenopausal infertile women; assay: Female Sexual Function Index (FSFI) questionnaire before and after DHEA supplementation, observational study; assay type: in vivo
Protocol: An observational study was conducted in an academically affiliated private fertility center. Patients included 87 premenopausal infertile women, 50 of whom completed the study including the Female Sexual Function Index (FSFI) questionnaires and comprehensive endocrine evaluation before and 4-8 weeks after initiating 25 mg of oral micronized DHEA TID. An example of a FSFI questionnaire is in a FSFI Scoring Appendix at the end of this patent application together with a discussion as to the manner of determining FSFI domain scores and full-scale score, which establish FSFI baselines.
as §1
Pearson correlation was used to investigate relationships between FSFI scores and patient demographics, as well as, hormone levels. Comparisons of FSFI scores and endocrine parameters before—and after—DHEA supplementation were made using paired T-tests. Based on starting FSFI scores patients were further subdivided into quartiles. Patient responses before and after DHEA supplementation from those in lowest and highest quartiles were then compared. Groups were compared using a two-sampled T-test or chi-square test. A P-value <0.05 was considered significant. All analyses were conducted using SAS version 9.4 (SAS Institute Inc. Cary, N.C.).
The individual domain scores and full scale (overall) score of the FSFI can be derived from the computational formula outlined in the table below. For individual domain scores, add the scores of the individual items that comprise the domain and multiply the sum by the domain factor (see below). Add the six domain scores to obtain the full scale score. […] Subject scores can be entered in the right-hand colum.

[4] = Baseline FSFI Score < 25.7, N = 12
[5] = Baseline FSFI Score ≥ 31.9, N = 13
[6] = whole group N=50, DHEA 25 mg TID 4-8 weeks, mean change
[7] = lowest starting FSFI score quartile (<25.7)
[8] = whole group N=50, DHEA 25 mg TID 4-8 weeks, mean change of domain score

C[C@]12CC[C@H](O)CC1=CC[C@@H]1[C@@H]2CC[C@]2(C)C(=O)CC[C@@H]12 [DHEA, dehydroepiandrosterone]
Patients who do not raise their testosterone levels in response to DHEA supplementation ([1]; infertile patients overall, a little more among African-descent women): less than 5%
Δ Hormone: AMH [2, 4]: 0.0 ± 0.6 ng/mL
Δ Hormone: Cortisol [2, 4]: 2.5 ± 1.6 µg/dL
Δ Hormone: DHEA [2, 4]: 291.0 ± 227.7 ng/dL
Δ Hormone: FSH [2, 4]: −3.6 ± 2.6 mIU/mL
Δ Hormone: Free Testosterone [2, 4]: 1.8 ± 1.3 pg/mL
Δ Hormone: SHBG [2, 4]: -15.8 ± 41.1 nmol/L
Δ Hormone: Total Testosterone [2, 4]: 16.4 ± 18.5 ng/dL
Δ Hormone: AMH [2, 5]: 0.1 ± 0.6 ng/mL
Δ Hormone: Cortisol [2, 5]: -0.4 ± 5.5 µg/dL
Δ Hormone: DHEA [2, 5]: 275.7 ± 186.6 ng/dL
Δ Hormone: FSH [2, 5]: −1.6 ± 3.5 mIU/mL
Δ Hormone: Free Testosterone [2, 5]: 0.5 ± 1.4 pg/mL
Δ Hormone: SHBG [2, 5]: -21.0 ± 51.6 nmol/L
Δ Hormone: Total Testosterone [2, 5]: 11.8 ± 18.6 ng/dL
Δ Hormone: AMH [2, 6]: 0.0 ng/mL
Δ Hormone: Cortisol [2, 6]: 1.3 µg/dL
Δ Hormone: FSH [2, 6]: −2.6 mIU/mL
Δ Hormone: Free Testosterone [2, 6]: 1.4 pg/mL
Δ Hormone: SHBG [2, 6]: -24.0 nmol/L
Δ Hormone: Total Testosterone [2, 6]: 15.1 ng/dL
Δ Hormone: DHEA ([2]; whole group N=50, DHEA 25 mg TID 4-8 weeks, mean change of serum level): 235.1 ng/dL
AMH levels, change ([2]; whole study group): no change
Cortisol levels, change ([2]; whole study group): no change
FSH levels, decrease from baseline ([2]; whole study group, baseline 10.3±5.4 mIU/mL): 2.6±4.4 mIU/mL
SHBG, decrease from baseline ([2]; whole study group, baseline 92.7±43.2 nmol/L): 24.0 ± 39.4 nmol/L
All serum androgen levels (DHEA, DHEAS, TT, FT), change from baseline ([2]; whole study group, each P<0.0001): increased
Δ Arousal [3, 4]: 1.3±1.7
Δ Desire [3, 4]: 1.0±0.8
Δ Lubrication [3, 4]: 0.8±2.3
Δ Orgasm [3, 4]: 1.0±2.3
Δ Pain [3, 4]: 0.9±2.3
Δ Satisfaction [3, 4]: 0.9±1.3
Δ Arousal [3, 5]: −0.2 ± 0.5
Δ Desire [3, 5]: −0.1 ± 0.6
Δ Lubrication [3, 5]: −0.1 ± 0.6
Δ Orgasm [3, 5]: −0.5 ± 1.1
Δ Pain [3, 5]: −0.1 ± 0.4
Δ Satisfaction [3, 5]: 0.0 ± 0.7
Δ FSFI Score ([3]; highest starting FSFI quartile, Baseline FSFI Score ≥ 31.9, N = 13, DHEA 25 mg TID 4-8 weeks): −1.0 ± 2.7
Δ FSFI Score ([3]; lowest starting FSFI quartile, Baseline FSFI Score < 25.7, N = 12, DHEA 25 mg TID 4-8 weeks): 6.1±8.0
Improvement in domain arousal [3, 7]: 46%
Improvement in domain desire [3, 7]: 40%
Improvement in domain lubrication [3, 7]: 33%
Improvement in domain orgasm [3, 7]: 54%
Improvement in domain pain [3, 7]: 25%
Improvement in domain satisfaction [3, 7]: 24%
Increase in total FSFI score [3, 7]: 34%
Δ Arousal: Confidence [3, 6]: 0.4
Δ Arousal: Frequency [3, 6]: 0.3
Δ Arousal: Level [3, 6]: 0.4
Δ Arousal: Satisfaction [3, 6]: 0.4
Δ Desire: Frequency [3, 6]: 0.5
Δ Desire: Level [3, 6]: 0.5
Δ Lubrication: Difficulty (first line) [3, 6]: 0.3
Δ Lubrication: Difficulty (second line, after Maintaining) [3, 6]: 0.2
Δ Lubrication: Frequency [3, 6]: 0.3
Δ Lubrication: Maintaining [3, 6]: 0.3
Δ Orgasm: Difficulty [3, 6]: 0.1
Δ Orgasm: Frequency [3, 6]: 0.0
Δ Orgasm: Satisfaction [3, 6]: 0.1
Δ Pain: During [3, 6]: 0.3
Δ Pain: Following [3, 6]: 0.2
Δ Pain: Level [3, 6]: 0.0
Δ Satisfaction: Closeness [3, 6]: 0.3
Δ Satisfaction: Overall [3, 6]: 0.3
Δ Satisfaction: Relationship [3, 6]: 0.2
Δ Arousal [3, 8]: 0.5
Δ Desire [3, 8]: 0.6
Δ Lubrication [3, 8]: 0.4
Δ Orgasm [3, 8]: 0.1
Δ Pain [3, 8]: 0.2
Δ Satisfaction [3, 8]: 0.3
Δ FSFI Score ([3]; whole group, 50 premenopausal infertile women, oral micronized DHEA 25 mg TID, before vs 4-8 weeks after, mean): 2.0
Domain score for arousal, increase ([3]; whole study group): 12%
Domain score for desire, increase ([3]; whole study group): 17%
Domain score for orgasm, change ([3]; whole study group): no significant changes
Domain score for pain, change ([3]; whole study group): no significant changes
Domain score for satisfaction, change ([3]; whole study group): no significant changes
Domain score for lubrication, trend towards improvement ([3]; whole study group, P=0.0551): 8%
FSFI score increase ([3]; whole study group, following DHEA supplementation): 7%
FSFI score after DHEA supplementation ([3]; whole study group, from baseline 27.2±6.9): 29.2±5.6

C[C@]12CC[C@H]3[C@@H](CCC4=CC(=O)CC[C@@]43C)[C@@H]1CC[C@@H]2O [testosterone]
Testosterone levels achieved in patients not responding to DHEA ([1]; 0.05 mg transdermal by pump once to 2-times per day, same time period): very similar testosterone levels are achieved

— US20200030342A1, “DEHYDROEPIANDROSTERONE (DHEA) SUPPL[…] FEMALE SEXUAL DESIRE AND FUNCTION IN PRE-[…]” (American Infertility of New York, P.C., priority 2018, published 2020)
